This is an account of results in publication PMC10342533, “Novel Tetrazole Derivatives Targeting Tubulin Endowed with Antiproliferative Activity against Glioblastoma Cells” (International Journal of Molecular Sciences, 2023).

One test relates to MCF7 cells. Put plainly: Apoptotic cell death quantification, Annexin V-FITC/PI, MCF7. The settings on record: MCF7, 72 h, 100 nM; for Necrotic cells: PI+ AnV−. It is filed as cell-based, human. The method, then:
(§1) To characterize the cell death mechanism induced by the representative compounds 10, 12, or 14 at 100 nM on HeLa, MCF7, and U87 MG cells, dual-channel flow cytometry studies were carried out for cells in the absence (negative control) or presence of compounds 72 h after treatment. Fluorescein isothiocyanate-labeled Annexin V (FITC-AnV) and propidium iodide (PI) were used for double staining. Regarding their response to AnV and PI, cells can be identified as viable (PI−, AnV−), early apoptotic (PI−, AnV+), late apoptotic or secondary necrotic (PI+, AnV+), or necrotic (PI+, AnV−). The translocation of the phosphatidylserine from the inner to the outer cell membrane causes the response of apoptotic cells to AnV, whereas only cells suffering some kind of membrane disintegration (late apoptotic or necrotic cells) allow PI permeation.
(§2) Following the manufacturer’s guidelines, an Annexin V-FITC/PI apoptosis detection kit (Immunostep, Salamanca, Spain) was used to quantify HeLa, MCF7, or U87 MG cells. Cells were seeded in 12-well plates (5·10^4 cells/mL, 1 mL/well) and incubated in complete DMEM medium (see above) at 37 °C and 5% CO2 atmosphere for 24 h. Then, the cells were treated with selected compounds (10, 12, or 14) at 100 nM, and untreated cells were used as negative controls. Then, 72 h after incubation, the cells were harvested, centrifugated, resuspended in the Annexin V binding buffer, and incubated in darkness with Annexin V-FITC/PI for 15 min at room temperature. The samples were analyzed by using a BD Accuri™ C6 Plus Flow Cytometer (BD Biosciences), and acquired data were analyzed via BD Accuri™ C6 Software (version 1.0.264.21).

A further test deals with U87 MG (glioblastoma). The test is described as follows: Cell growth inhibition, MTT assay, U87 MG. It counts as cell-based. The settings on record: Homo sapiens, U-87 MG. For orientation: Formazan colour is commonly taken as a measure of viable cells.
The next test relates to HeLa cells. Put plainly: Apoptotic cell death quantification, Annexin V-FITC/PI, HeLa. It counts as cell-based, human. The settings on record: 72 h, 100 nM. The method, then: as §1, §2
The target of test [1] is T1, microtubular protein isolated from calf brains (bovine brain tubulin) (Bos taurus, UniProt P81947+Q6B856).
T1 construct: from tissue; host or cells: calf (bovine) brain
Put plainly: Tubulin polymerization inhibition (TPI). The settings on record: in vitro tubulin polymerization, mean ± SD. It counts as biochemical.

Test [2] concerns MCF7 (breast adenocarcinoma). Put plainly: Cell growth inhibition, MTT assay, MCF7. It counts as cell-based. The settings on record: Homo sapiens.
The test system of test [3] is microtubule network of MCF7 cells. Put plainly: Immunofluorescence confocal microscopy of microtubule network, MCF7. It is filed as cell-based, human. The settings on record: MCF7, 24 h, 100 nM, α-tubulin immunofluorescence. The method, then: To elucidate if the interaction of the compounds with tubulin inferred from the in vitro TPI experiments has consequences on cellular microtubules, we studied the effect of representative compounds on the microtubule network of HeLa, MCF7, and U87 MG cells 24 h after treatment via the use of immunofluorescence confocal microscopy through α-tubulin and nuclei labeling.
HeLa, MCF7, and U87 MG cells (8·10^4 cells/mL) were grown on 0.01% poly-L-lysine pre-coated square glass coverslips (22 mm^2), deposited on 6-well plates (1 coverslip/well), and incubated in complete DMEM medium (see above) at 37 °C and 5% CO2 atmosphere for 24 h. Then, the cells were incubated for 24 h in the presence or absence (negative controls) of selected compounds (10, 12, or 14) at 100 nM. After drug treatment incubation, medium was removed, and coverslips were washed three times with PBS, fixed with 4% formaldehyde in PBS for 10 min, permeabilized with 0.5% Triton X-100, (Sigma-Aldrich, St. Louis, MO, USA) in PBS for 90 s at 4 °C, blocked with 10% BSA in PBS for 30 min, and washed with PBS four times. The coverslips were incubated for 1 h with anti-α-tubulin mouse monoclonal antibody (Sigma-Aldrich, St. Louis, MO, USA), diluted 1:200 in PBS containing 3% BSA, washed four times with PBS, and then incubated in darkness with the fluorescent secondary antibody Alexa Fluor 488 goat anti-mouse IgG (Molecular Probes, Invitrogen, Eugenen, OR, USA) and diluted 1:400 in PBS containing 1% BSA for 1.5 h. The coverslips were washed four times with PBS, and a drop of ProLong™ Gold Antifade Mountant containing DAPI (ThermoFisher, Waltham, MA, USA) was added for cell nuclei staining. The samples were analyzed via confocal microscopy, which was performed by using a LEICA SP5 microscope DMI-6000V model coupled to a LEICA LAS AF software computer.

T1 sequence (Q6B856 whole entry): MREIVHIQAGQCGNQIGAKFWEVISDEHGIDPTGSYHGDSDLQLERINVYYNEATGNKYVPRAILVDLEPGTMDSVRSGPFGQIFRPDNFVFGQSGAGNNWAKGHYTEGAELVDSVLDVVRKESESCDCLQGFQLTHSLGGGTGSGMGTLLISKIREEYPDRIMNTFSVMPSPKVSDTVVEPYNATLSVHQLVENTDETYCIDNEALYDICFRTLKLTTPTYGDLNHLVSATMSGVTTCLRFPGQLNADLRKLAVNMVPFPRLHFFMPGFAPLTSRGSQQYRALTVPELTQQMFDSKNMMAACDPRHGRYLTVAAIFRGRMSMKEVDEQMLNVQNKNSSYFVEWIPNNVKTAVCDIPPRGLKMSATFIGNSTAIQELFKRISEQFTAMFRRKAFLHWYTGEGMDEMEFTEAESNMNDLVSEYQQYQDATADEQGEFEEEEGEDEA
T1 sequence (P81947 whole entry): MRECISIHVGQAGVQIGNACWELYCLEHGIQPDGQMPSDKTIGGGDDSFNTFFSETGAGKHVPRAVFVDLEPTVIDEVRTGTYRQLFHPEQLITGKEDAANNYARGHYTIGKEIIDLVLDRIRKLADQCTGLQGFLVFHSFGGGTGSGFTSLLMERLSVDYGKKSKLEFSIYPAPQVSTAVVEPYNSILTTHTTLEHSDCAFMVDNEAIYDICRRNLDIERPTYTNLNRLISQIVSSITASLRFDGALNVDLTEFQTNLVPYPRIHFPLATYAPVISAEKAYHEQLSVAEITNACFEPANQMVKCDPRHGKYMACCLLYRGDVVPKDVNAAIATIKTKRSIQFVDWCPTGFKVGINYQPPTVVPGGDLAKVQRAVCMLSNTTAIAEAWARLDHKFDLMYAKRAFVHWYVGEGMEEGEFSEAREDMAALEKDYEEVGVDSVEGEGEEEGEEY

Consider `CSc1cc(-c2nnnn2-c2ccc3c(ccn3C)c2)cc(Cl)n1` [Compound 10, 5-(5-(2-chloro-6-(methylsulfanyl)pyridin-4-yl)-1H-tetrazol-1-yl)-1-methyl-1H-indole], for which the “early and late apoptotic populations” value in the test with MCF7 cells was 22%. Also, in the test on MCF7 cells, the Necrotic cells is reported as 2.3%. Besides, the IC50 (as a rule, the concentration that inhibits the measured activity by half) with U87 MG (glioblastoma) (72 h after drug exposure) was found to be 22 nM; in the test on U87 MG (glioblastoma) (mean ± SD, Table S1), 22.2 ± 0.1 nM; in test [1], 1500 ± 100 nM; in test [2] (72 h after drug exposure), 38 nM; in test [2] (mean ± SD, Table S1), 38.4 ± 0.4 nM. Besides, the “apoptosis (early and late apoptotic death)” value (shortened to “apoptosis”) in the test on HeLa cells is roughly 73%. Besides, in test [3], the “effect on microtubule network” value is listed as “severe microtubule network disruption”.
On to `Cn1cc(C=O)c2cc(-n3nnnc3-c3cc(Cl)nc(Cl)c3)ccc21` [Compound 12, 5-(5-(2,6-dichloropyridin-4-yl)-1H-tetrazol-1-yl)-1-methyl-1H-indole-3-carbaldehyde], for which the “early and late apoptotic populations” value in the test with MCF7 cells was 8%. For the same compound, in the test on MCF7 cells, the Necrotic cells was found to be 7%. The IC50 in the test with U87 MG (glioblastoma) (72 h after drug exposure) came to 17 nM; in the test with U87 MG (glioblastoma) (mean ± SD, Table S1) it was 17.1 ± 0.1 nM; in test [1], 1300 ± 100 nM; in test [2] (72 h after drug exposure), 37 nM; in test [2] (mean ± SD, Table S1), 37.3 ± 0.2 nM. In addition, the “apoptosis” value with HeLa cells is roughly 73%. For the same compound, the “effect on microtubule network” value in test [3] is recorded as “severe microtubule network disruption”.
Consider `CSc1cc(-c2nnnn2-c2ccc3c(c2)c(C=O)cn3C)cc(Cl)n1` [Compound 14, 5-(5-(2-chloro-6-(methylsulfanyl)pyridin-4-yl)-1H-tetrazol-1-yl)-1-methyl-1H-indole-3-carbaldehyde], for which the “early and late apoptotic populations” value with MCF7 cells is reported as 29%. The compound further yielded a Necrotic cells with MCF7 cells of 2.6%. For the same compound, the IC50 turned out to be 12 nM in the test on U87 MG (glioblastoma) (72 h after drug exposure); 800 ± 100 nM in test [1]; 26 nM in test [2] (72 h after drug exposure); 26.2 ± 0.1 nM in test [2] (mean ± SD, Table S1). Besides, in the test with HeLa cells, the “apoptosis” value worked out at 80%. In addition, the “effect on microtubule network” value in test [3] is recorded as “severe microtubule network disruption”.
